This passage reports IC50 results from patent US20240261367A1, “CYCLIC PEPTIDE IMMUNOMODULATORS” (priority 2021, published 2024).

Starred links: 1 amine or outer side, 2 acyl side, 3 side chain; linkers in the order of their positions; H or OH if unused. Positions of bridges follow the written chain, without caps; N, C: chain ends. Non-standard residues stand in square brackets, D forms with d. Residues, ends and D or L forms follow the SMILES beside them. X2 = COC(=O)CCCCCCCCCCCCCCCCC(=O)N[C@@H](CCC(=O)NCCOCCOCCOCCOCCOCCOCCOCCOCCOCCOCCOCCn1cc(C[C@H](NC(=N)CNC(=O)[C@H](CSCC(=O)[*:1])NC(=N)[C@H](CC(C)C)N[*:2])C(=O)OC)nn1)C(=O)OC; Ala(1-CH2COOH-inden-3-yl) = N[C@@H](CC1=CC(CC(=O)O)c2ccccc21)C(=O)O; Hyp = O=C(O)[C@@H]1C[C@@H](O)CN1; NMeNle = CCCC[C@H](NC)C(=O)O; NMeA = CN[C@@H](C)C(=O)O; Dab = NCC[C@H](N)C(=O)O; Dap = NC[C@H](N)C(=O)O

This assay has as its target T1, PD-1/PD-L1 (Homo sapiens, UniProt Q9NZQ7).
T1 construct: TVMV protease site linker (C); made in house; host or cells: HEK293T cells
Briefly: PD-1/PD-L1 Homogenous Time-Resolved Fluorescence (HTRF) binding assay. The conditions noted are these: PD-L1-His (10 nM) pre-incubated with inhibitor 15 m, then PD-1-Ig (20 nM). An excerpt: Methods for Testing the Ability of Macrocyclic Peptides to Compete for the Binding of PD-1 to PD-L1 Using Homogenous Time-Resolved Fluorescence (HTRF) Binding Assays
The ability of the compounds of formula (I) to bind to PD-L1 was investigated using a PD-1/PD-L1 Homogenous Time-Resolved Fluorescence (HTRF) binding assay.
Homogenous Time-Resolved Fluorescence (HTRF) Binding Assay
The interaction of PD-1 and PD-L1 can be assessed using soluble, purified preparations of the extracellular domains of the two proteins. The PD-1 and PD-L1 protein extracellular domains were expressed as fusion proteins with detection tags, for PD-1, the tag was the Fc portion of Immunoglobulin (PD-1-Ig) and for PD-L1 it was the 6 histidine motif (PD-L1-His). All binding studies were performed in an HTRF assay buffer consisting of dPBS supplemented with 0.1% […] bovine serum albumin and 0.05% (v/v) Tween-20. […] HTRF detection was achieved using europium crypate-labeled anti-Ig (1 nM final) and allophycocyanin (APC) labeled anti-His (20 nM final). Antibodies were diluted in HTRF detection buffer and 5 μl was dispensed on top of the binding reaction. The reaction mixture was allowed to equilibrate for 30 minutes and the resulting signal (665 nm/620 nm ratio) was obtained using an EnVision fluorometer. Additional binding assays were established between the human proteins PD-1-Ig/PD-L2-His (20 & 5 nM, respectively) and CD80-His/PD-L1-Ig (100 & 10 nM, respectively).
Recombinant Proteins: Human PD-1 (25-167) with a C-terminal human Fc domain of immunoglobulin G (Ig) epitope tag [hPD-1 (25-167)-3S-IG] and human PD-L1 (18-239) with a C-terminal His epitope tag [hPD-L1(18-239)-TVMV-His] were expressed in HEK293T cells and purified sequentially by ProteinA affinity chromatography and size exclusion chromatography. Human PD-L2-His and CD80-His was obtained through commercial sources.
Table 1 lists the IC50 values for representative examples of this disclosure measured in the PD-1/PD-L1 Homogenous Time-Resolved Fluorescence (HTRF) binding assay.
A general note: In TR-FRET formats the signal depends on donor and acceptor labels being close together.

T1 sequence (Q9NZQ7 18-239): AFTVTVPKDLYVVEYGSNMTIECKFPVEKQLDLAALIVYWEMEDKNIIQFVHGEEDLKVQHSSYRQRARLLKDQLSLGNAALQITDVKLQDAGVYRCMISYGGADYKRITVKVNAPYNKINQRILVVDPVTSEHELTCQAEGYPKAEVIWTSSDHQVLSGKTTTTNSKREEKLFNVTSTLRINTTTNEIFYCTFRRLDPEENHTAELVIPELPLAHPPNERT

On to `CCCC[C@H]1C(=O)N(C)[C@@H](CCCC)C(=O)N[C@@H](CC(C)C)C(=N)N[C@H](C(=O)NCC(=N)N[C@@H](Cc2cn(CCOCCOCCOCCOCCOCCOCCOCCOCCOCCOCCOCCNC(=O)CC[C@H](NC(=O)CCCCCCCCCCCCCCCCC(=O)OC)C(=O)OC)nn2)C(=O)OC)CSCC(=O)N[C@@H](Cc2ccc(O)cc2)C(=O)N(C)[C@@H](C)C(=O)N[C@@H](CC(N)=O)C(=O)N2CCC[C@H]2C(=O)N[C@@H](CN)C(=O)N[C@@H](CC(C)C)C(=O)N2C[C@H](O)C[C@H]2C(=O)N[C@@H](Cc2c[nH]c3ccccc23)C(=O)N[C@@H](CCN)C(=O)N[C@@H](CC2=CC(CC(=O)O)c3ccccc32)C(=O)N1C` (some centres unmarked) [Example 1012] (Y[NMeA]NP[Dap]L[Hyp]W[Dab][Ala(1-CH2COOH-inden-3-yl)][NMeNle][NMeNle]; linker N-C via X2), for which the IC50 (as a rule, the point on the concentration scale where inhibition reaches its midpoint) was 11 nM.
The compound `CCCC[C@H]1C(=O)N(C)[C@@H](CCCC)C(=O)N[C@@H](CC(C)C)C(=O)N[C@H](C(=O)NCC(=O)N[C@@H](Cc2cn(CCOCCOCCOCCOCCOCCOCCOCCOCCOCCOCCOCCNC(=O)CC[C@H](NC(=O)CCCCCCCCCCCCCCCCC(=O)O)C(=O)O)nn2)C(=O)O)CSCC(=O)N[C@@H](Cc2ccc(O)cc2)C(=O)N(C)[C@@H](C)C(=O)N[C@@H](CC(N)=O)C(=O)N2CCC[C@H]2C(=O)N[C@@H](CNC(=O)OCCC)C(=O)N[C@@H](CC(C)C)C(=O)N2C[C@H](O)C[C@H]2C(=O)N[C@@H](Cc2c[nH]c3ccccc23)C(=O)N[C@@H](CCN)C(=O)N[C@@H](CC2=CC(CC(=O)O)c3ccccc32)C(=O)N1C` (some centres unmarked) [Example 1013] registered a half-inhibitory concentration (IC50) of 9.3 nM.
`CCCC[C@H]1C(=O)N(C)[C@@H](CCCC)C(=O)N[C@@H](CC(C)C)C(=O)N[C@H](C(=O)NCC(=O)N[C@@H](Cc2cn(CCOCCOCCOCCOCCOCCOCCOCCOCCOCCOCCOCCNC(=O)CC[C@H](NC(=O)CCCCCCCCCCCCCCCCC(=O)O)C(=O)O)nn2)C(=O)O)CSCC(=O)N[C@@H](Cc2ccc(O)cc2)C(=O)N(C)[C@@H](C)C(=O)N[C@@H](CC(N)=O)C(=O)N2CCC[C@H]2C(=O)N[C@@H](CNC(=O)OCC(C)C)C(=O)N[C@@H](CC(C)C)C(=O)N2C[C@H](O)C[C@H]2C(=O)N[C@@H](Cc2c[nH]c3ccccc23)C(=O)N[C@@H](CCN)C(=O)N[C@@H](CC2=CC(CC(=O)O)c3ccccc32)C(=O)N1C` (some centres unmarked) [Example 1014] had a 50% inhibitory concentration (IC50) of 3.1 nM.
On to `CCCC[C@H]1C(=O)N(C)[C@@H](CCCC)C(=O)N[C@@H](CC(C)C)C(=O)N[C@H](C(=O)NCC(=O)N[C@@H](Cc2cn(CCOCCOCCOCCOCCOCCOCCOCCOCCOCCOCCOCCNC(=O)CC[C@H](NC(=O)CCCCCCCCCCCCCCCCC(=O)O)C(=O)O)nn2)C(=O)O)CSCC(=O)N[C@@H](Cc2ccc(O)cc2)C(=O)N(C)[C@@H](C)C(=O)N[C@@H](CC(N)=O)C(=O)N2CCC[C@H]2C(=O)N[C@@H](CNC(=O)OC)C(=O)N[C@@H](CC(C)C)C(=O)N2C[C@H](O)C[C@H]2C(=O)N[C@@H](Cc2c[nH]c3ccccc23)C(=O)N[C@@H](CCN)C(=O)N[C@@H](CC2=CC(CC(=O)O)c3ccccc32)C(=O)N1C` (some centres unmarked) [Example 1016], for which the concentration for half-maximal inhibition (IC50) came to 13 nM.
`CCCC[C@H]1C(=O)N(C)[C@@H](CCCC)C(=O)N[C@@H](CC(C)C)C(=O)N[C@H](C(=O)NCC(=O)N[C@@H](Cc2cn(CCOCCOCCOCCOCCOCCOCCOCCOCCOCCOCCOCCNC(=O)CC[C@H](NC(=O)CCCCCCCCCCCCCCCCC(=O)O)C(=O)O)nn2)C(=O)O)CSCC(=O)N[C@@H](Cc2ccc(O)cc2)C(=O)N(C)[C@@H](C)C(=O)N[C@@H](CC(N)=O)C(=O)N2CCC[C@H]2C(=O)N[C@@H](CNC(=O)OC)C(=O)N[C@@H](CC(C)C)C(=O)N2C[C@H](O)C[C@H]2C(=O)N[C@@H](Cc2c[nH]c3ccccc23)C(=O)N[C@@H](CCNC(=O)OC)C(=O)N[C@@H](CC2=CC(CC(=O)O)c3ccccc32)C(=O)N1C` (some centres unmarked) [Example 1019] yielded an IC50 of 6.3 nM.
In the case of `CCCC[C@H]1C(=O)N(C)[C@@H](CCCC)C(=O)N[C@@H](CC(C)C)C(=O)N[C@H](C(=O)NCC(=O)N[C@@H](Cc2cn(CCOCCOCCOCCOCCOCCOCCOCCOCCOCCOCCOCCNC(=O)CC[C@H](NC(=O)CCCCCCCCCCCCCCCCC(=O)O)C(=O)O)nn2)C(=O)O)CSCC(=O)N[C@@H](Cc2ccc(O)cc2)C(=O)N(C)[C@@H](C)C(=O)N[C@@H](CC(N)=O)C(=O)N2CCC[C@H]2C(=O)N[C@@H](CNC(=O)OCc2oc(=O)oc2C)C(=O)N[C@@H](CC(C)C)C(=O)N2C[C@H](O)C[C@H]2C(=O)N[C@@H](Cc2c[nH]c3ccccc23)C(=O)N[C@@H](CCN)C(=O)N[C@@H](CC2=CC(CC(=O)O)c3ccccc32)C(=O)N1C` (some centres unmarked) [Example 1021], the IC50 was determined as 27 nM.
To `CCCC[C@H]1C(=O)N(C)[C@@H](CCCC)C(=O)N[C@@H](CC(C)C)C(=O)N[C@H](C(=O)NCC(=O)N[C@@H](Cc2cn(CCOCCOCCOCCOCCOCCOCCOCCOCCOCCOCCOCCNC(=O)CC[C@H](NC(=O)CCCCCCCCCCCCCCCCC(=O)O)C(=O)O)nn2)C(=O)O)CSCC(=O)N[C@@H](Cc2ccc(O)cc2)C(=O)N(C)[C@@H](C)C(=O)N[C@@H](CC(N)=O)C(=O)N2CCC[C@H]2C(=O)N[C@@H](CNC(=O)OCc2oc(=O)oc2C)C(=O)N[C@@H](CC(C)C)C(=O)N2C[C@H](O)C[C@H]2C(=O)N[C@@H](Cc2c[nH]c3ccccc23)C(=O)N[C@@H](CCNC(=O)CCc2oc(=O)oc2C)C(=O)N[C@@H](CC2=CC(CC(=O)O)c3ccccc32)C(=O)N1C` (some centres unmarked) [Example 1022] belongs 6.8 nM; to `CCCC[C@H]1C(=O)N(C)[C@@H](CCCC)C(=O)N[C@@H](CC(C)C)C(=O)N[C@H](C(=O)NCC(=O)N[C@@H](Cc2cn(CCOCCOCCOCCOCCOCCOCCOCCOCCOCCOCCOCCNC(=O)CC[C@H](NC(=O)CCCCCCCCCCCCCCCCC(=O)O)C(=O)OCC)nn2)C(=O)O)CSCC(=O)N[C@@H](Cc2ccc(O)cc2)C(=O)N(C)[C@@H](C)C(=O)N[C@@H](CC(N)=O)C(=O)N2CCC[C@H]2C(=O)N[C@@H](CN)C(=O)N[C@@H](CC(C)C)C(=O)N2C[C@H](O)C[C@H]2C(=O)N[C@@H](Cc2c[nH]c3ccccc23)C(=O)N[C@@H](CCN)C(=O)N[C@@H](CC2=CC(CC(=O)O)c3ccccc32)C(=O)N1C` (some centres unmarked) [Example 1024], 13 nM; to `CCCC[C@H]1C(=O)N(C)[C@@H](CCCC)C(=O)N[C@@H](CC(C)C)C(=O)N[C@H](C(=O)NCC(=O)N[C@@H](Cc2cn(CCOCCOCCOCCOCCOCCOCCOCCOCCOCCOCCOCCNC(=O)CC[C@H](NC(=O)CCCCCCCCCCCCCCCCC(=O)O)C(=O)O)nn2)C(=O)OCC)CSCC(=O)N[C@@H](Cc2ccc(O)cc2)C(=O)N(C)[C@@H](C)C(=O)N[C@@H](CC(N)=O)C(=O)N2CCC[C@H]2C(=O)N[C@@H](CN)C(=O)N[C@@H](CC(C)C)C(=O)N2C[C@H](O)C[C@H]2C(=O)N[C@@H](Cc2c[nH]c3ccccc23)C(=O)N[C@@H](CCN)C(=O)N[C@@H](CC2=CC(CC(=O)O)c3ccccc32)C(=O)N1C` (some centres unmarked) [Example 1025], 12 nM.
As to `CCCC[C@H]1C(=O)N(C)[C@@H](CCCC)C(=O)N[C@@H](CC(C)C)C(=O)N[C@H](C(=O)NCC(=O)N[C@@H](Cc2cn(CCOCCOCCOCCOCCOCCOCCOCCOCCOCCOCCOCCNC(=O)CC[C@H](NC(=O)CCCCCCCCCCCCCCCCC(=O)O)C(=O)OC)nn2)C(=O)O)CSCC(=O)N[C@@H](Cc2ccc(O)cc2)C(=O)N(C)[C@@H](C)C(=O)N[C@@H](CC(N)=O)C(=O)N2CCC[C@H]2C(=O)N[C@@H](CN)C(=O)N[C@@H](CC(C)C)C(=O)N2C[C@H](O)C[C@H]2C(=O)N[C@@H](Cc2c[nH]c3ccccc23)C(=O)N[C@@H](CCN)C(=O)N[C@@H](CC2=CC(CC(=O)O)c3ccccc32)C(=O)N1C` (some centres unmarked) [Example 1026], the half-maximal inhibitory concentration (IC50) amounted to 2.9 nM.
With `CCCC[C@H]1C(=O)N(C)[C@@H](CCCC)C(=O)N[C@@H](CC(C)C)C(=O)N[C@H](C(=O)NCC(=O)N[C@@H](Cc2cn(CCOCCOCCOCCOCCOCCOCCOCCOCCOCCOCCOCCNC(=O)CC[C@H](NC(=O)CCCCCCCCCCCCCCCCC(=O)O)C(=O)O)nn2)C(=O)O)CSCC(=O)N[C@@H](Cc2ccc(O)cc2)C(=O)N(C)[C@@H](C)C(=O)N[C@@H](CC(N)=O)C(=O)N2CCC[C@H]2C(=O)N[C@@H](CNC(=O)O[C@H]2CC[C@@]3(C)C(CC[C@H]4[C@@H]5CC[C@H]([C@H](C)CCCC(C)C)[C@@]5(C)CC[C@@H]43)C2)C(=O)N[C@@H](CC(C)C)C(=O)N2C[C@H](O)C[C@H]2C(=O)N[C@@H](Cc2c[nH]c3ccccc23)C(=O)N[C@@H](CC)C(=O)N[C@@H](CC2=CC(CC(=O)O)c3ccccc32)C(=O)N1C` (some centres unmarked) [Example 1027] the figure was 110 nM.
